Measurements taken from article PMC9869995, “Discovery of benzochromene derivatives first example with dual cytotoxic activity against the resistant cancer cell MCF-7/ADR and inhibitory effect of the P-glycoprotein expression levels” (Journal of Enzyme Inhibition and Medicinal Chemistry, 2023).

Assays:
[1] = test system: P-gp; experiment: P-gp content in MCF-7/ADR cell lysate by ELISA; format: cell-based, human; conditions: MCF-7/ADR lysate; for %Reduction of P-gp expression / IC50: 48 h; for IC50 at 48 h: human, MCF-7/ADR cells (cell lysate)
Experimental: P-gp pumps multiple types of drugs out of the cell, using energy generated from adenosine triphosphate (ATP), and confers MDR on cancer cells. It is one of the noteworthy problems in malignant tumour clinical therapeutics. […].
The content of P-gp in the MCF-7/ADR cell lysates after incubation with varying conc. (12.5–100 µM) of tested compounds 4b, 4c, 4d, 4q, and 4w following exposure for 48 h. was determined using commercial human P-gp ELISA Kit (MBS2506188, MyBioSource Inc., San Diego, CA). Absorption was recorded at 450 nm with a Spectramax Gemini fluorescence microplate reader (Molecular Devices, Sunnyvale, CA).

[2] = test system: MCF-7/ADR; experiment: Cytotoxicity against ADR-resistant breast cancer cells; format: cell-based, human; conditions: 24 h exposure, mean ± standard error
From the text: (§1) According to previous reports regarding the cytotoxic features of a numerous array of benzochromene scaffolds, compounds 4a − z have been elected to explore their cytotoxic ability against three tumour cell lines, including HCT-116 (colon cancer), MCF-7 (breast cancer), and HepG-2 (hepatocellular cancer), and employing the 3–(4,5-dimethylthiazol-2-yl)-2,5-diphenyl tetrazolium bromide (MTT) colorimetric assay as described in literature. Judges choice of such cell lines has been stimulated by the acknowledged antitumor performance of a substantial number of 1H-benzo[f]chromene and 4H-benzo[h]chromene molecules towards the asserted cell lines. […] Moreover, benzochromene derivatives with highly cytotoxic behaviour, 4a − d, 4g, 4i, 4k, 4n, 4q, 4 u, and 4w, are subjected to further inspection against ADR-resistant human breast cancer cells (MCF-7/ADR) and the two normal cell lines, HFL-1 and human diploid fibroblasts (WI-38). […] Also, the results are illustrated in Table 4.
(§2) The cytotoxic activity was appraised, using the 3–(4,5-dimethylthiazol-2-yl)-2,5-diphenyl-tetrazolium bromide (MTT) colorimetric assay, as reported previously[57] and ELISA assay for MCF-7/ADR[75].

[3] = test system: WI-38; experiment: Cytotoxicity against normal cell line WI-38; format: cell-based; conditions: Homo sapiens, 24 h, mean ± standard error
From the text: as §1, §2

[4] = test system: HFL-1; experiment: Cytotoxicity against normal cell line HFL-1; format: cell-based; conditions: Homo sapiens, HFL1, 24 h, mean ± standard error
From the text: as §1, §2

[5] = test system: HepG-2; experiment: MTT cell viability assay, HepG-2; format: cell-based; conditions: Homo sapiens, HepG2, 24 h incubation, mean ± standard error
From the text: as §1
(§3) The tumour cell lines MCF-7, HepG-2, and […] were obtained from the American Type Culture Collection (ATCC, Rockville, MD). The cells were grown on RPMI-1640 medium supplemented with 10% inactivated foetal calf serum and 50 µg/mL gentamycin. The cells were maintained at 37 °C in a humidified atmosphere with 5% CO2 and were subculture two to three times a week.
as §2

[6] = test system: HCT-116; experiment: MTT cell viability assay, HCT-116; format: cell-based; conditions: Homo sapiens, 24 h incubation, mean ± standard error
From the text: as §1, §2

[7] = biological target: T1, P-gp (Homo sapiens, UniProt P08183); experiment: Rhodamine 123 accumulation assay in MCF-7/ADR cells; format: cell-based; conditions: 4 h compound, then 5.25 μM Rho123 30 min
T1 construct: endogenous in cells; host or cells: MCF-7/ADR (Adriamycin-resistant human breast cancer cells)
Experimental: Furthermore, the reversion of P-gp mediated multidrug resistance may be achieved by down-regulation of P-gp expression and or inhibition of P-gp efflux function.
Briefly, resistant cancer cells were harvested, washed twice, and counted. […] of each well was measured using Spectramax Gemini fluorescence microplate reader (Molecular Devices, Sunnyvale, CA). The total content of Rhodamine in each sample was determined by comparison with a Rhodamine standard curve.

[8] = test system: MCF-7; experiment: MTT cell viability assay, MCF-7; format: cell-based; conditions: Homo sapiens, MCF7, 24 h incubation, mean ± standard error
From the text: as §1, §3, §2

[9] = test system: MCF-7/ADR cells; experiment: Annexin V-FITC/PI apoptosis assay; format: cell-based, human; conditions: IC50 value, 24 h, untreated cells 2%
From the text: Several lines of evidence indicate that many anticancer compounds exerted their effects by blocking the cell cycle progression, by inducing apoptosis, or the combined effect of both[67]. Also, P-gp inhibits apoptosis by preventing the release of cytochrome c which is mediated by the intrinsic mitochondrial pathway. To further assess the pivotal relation of the newly synthesised MCF-7/ADR anticancer compounds and apoptosis, phosphatidylserine (PS) translocation to the cell membrane as a marker for apoptosis was measured by the means of the Annexin V/PI double staining flow cytometric assay.
Apoptosis assay was performed with an Annexin V-FITC/PI double staining apoptosis detection kit (K101, Biovison, Milpitas, CA) using a flow cytometer. MCF-7/ADR cancer cells treated with different newly synthesised compounds (IC50 value) were harvested by trypsinization, washed twice with 4 °C PBS, and re-suspended in binding buffer. Annexin V-FITC and PI solutions were then added to stain the cells before analysis by flow cytometry A minimum of 10,000 cells per sample were acquired. Annexin V-FITC binding (FL1) and PI (FL2) were analysed using Cell Quest Pro software (BD Biosciences).

[10] = Homo sapiens, NCI/ADR-RES, 24 h

T1 sequence (P08183 whole entry): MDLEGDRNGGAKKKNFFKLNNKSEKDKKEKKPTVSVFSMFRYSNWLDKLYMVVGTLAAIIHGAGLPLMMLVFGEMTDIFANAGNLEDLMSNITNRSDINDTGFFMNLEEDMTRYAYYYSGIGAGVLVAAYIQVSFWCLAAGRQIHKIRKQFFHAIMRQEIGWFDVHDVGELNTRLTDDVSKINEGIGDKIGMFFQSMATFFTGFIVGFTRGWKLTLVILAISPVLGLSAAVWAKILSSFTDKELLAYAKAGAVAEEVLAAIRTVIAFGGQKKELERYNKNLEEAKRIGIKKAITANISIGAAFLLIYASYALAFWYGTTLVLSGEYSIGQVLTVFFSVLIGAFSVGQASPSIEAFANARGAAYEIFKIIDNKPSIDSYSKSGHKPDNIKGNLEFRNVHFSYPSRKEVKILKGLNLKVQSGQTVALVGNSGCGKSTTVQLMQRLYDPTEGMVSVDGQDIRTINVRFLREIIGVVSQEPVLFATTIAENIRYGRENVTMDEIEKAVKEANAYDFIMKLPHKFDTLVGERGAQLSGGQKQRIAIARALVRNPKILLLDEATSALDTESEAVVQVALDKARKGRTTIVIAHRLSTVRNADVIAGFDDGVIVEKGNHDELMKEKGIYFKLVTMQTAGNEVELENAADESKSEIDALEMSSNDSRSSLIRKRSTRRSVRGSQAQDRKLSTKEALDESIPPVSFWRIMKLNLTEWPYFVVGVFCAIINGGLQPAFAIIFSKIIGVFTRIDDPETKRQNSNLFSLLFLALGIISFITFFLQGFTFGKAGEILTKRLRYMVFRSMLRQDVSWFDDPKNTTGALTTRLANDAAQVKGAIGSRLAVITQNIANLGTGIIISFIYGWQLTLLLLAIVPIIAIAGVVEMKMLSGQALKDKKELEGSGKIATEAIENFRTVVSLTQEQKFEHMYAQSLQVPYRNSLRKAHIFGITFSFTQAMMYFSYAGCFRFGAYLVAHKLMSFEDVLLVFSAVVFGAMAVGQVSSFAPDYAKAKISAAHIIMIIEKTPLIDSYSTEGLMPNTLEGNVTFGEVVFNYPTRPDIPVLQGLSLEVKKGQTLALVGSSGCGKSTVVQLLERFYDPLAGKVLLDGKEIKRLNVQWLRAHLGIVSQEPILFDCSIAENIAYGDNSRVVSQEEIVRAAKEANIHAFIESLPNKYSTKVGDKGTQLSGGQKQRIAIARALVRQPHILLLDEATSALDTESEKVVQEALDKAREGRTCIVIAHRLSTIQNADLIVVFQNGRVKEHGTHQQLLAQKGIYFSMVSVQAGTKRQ

Row | Compound | %Reduction of P-gp expression ([1]; Conc. 12.5 µM) | %Reduction of P-gp expression ([1]; Conc. 25 µM) | %Reduction of P-gp expression ([1]; Conc. 50 µM) | %Reduction of P-gp expression ([1]; Conc. 100 µM) | IC50 [1] | IC50 at 48 h [1] | IC50 [2] | IC50 [2, 10] | IC50 [3] | melting point | IC50 [4] | IC50 [5] | IC50 [6] | IC50 [7] | IC50 [8] | total apoptosis [9]
1 | COc1ccc2ccc3c(c2c1)C(c1ccccc1Cl)C(C#N)=C(N)O3 (centres unmarked) [4b, 3-Amino-1–(2-chlorophenyl)-9-methoxy-1H-benzo[f]chromene-2-carbonitrile] | 30% | 42% | 72% | 90% | 26.7 µM | 18.7 to 34.6 µM | 13.3 ± 0.5 µM | 10.9 to 15.5 µM | 66.7 ± 0.2 µM | 266 to 267 °C | 71.9 ± 0.1 µM | 10.7 ± 0.5 µM | 2.5 ± 0.2 µM | 20.5 µM | 11.3 ± 0.1 µM | 
2 | COc1ccc2ccc3c(c2c1)C(c1cccc(Cl)c1)C(C#N)=C(N)O3 (centres unmarked) [4c, 3-Amino-1–(3-chlorophenyl)-9-methoxy-1H-benzo[f]chromene-2-carbonitrile] | 26% | 40% | 70% | 84% | 28.4 µM | 18.7 to 34.6 µM | 10.9 ± 0.2 µM | 10.9 to 15.5 µM | 61.5 ± 1.2 µM | 262 to 263 °C | 59.5 ± 1.1 µM | 11 ± 0.2 µM | 9.9 ± 0.1 µM | 23 µM | 8.5 ± 0.6 µM | 
3 | COc1ccc2ccc3c(c2c1)C(c1ccc(Cl)cc1)C(C#N)=C(N)O3 (centres unmarked) [4d, 3-Amino-1–(4-chlorophenyl)-9-methoxy-1H-benzo[f]chromene-2-carbonitrile] | 45% | 60% | 81% | 91% |  | 13.5 µM | 12.5 ± 0.3 µM | 10.9 to 15.5 µM | 83 ± 1.1 µM | 257 to 258 °C | 77.1 ± 1.1 µM | 7.2 ± 0.1 µM | 1.9 ± 0.4 µM | 10.6 µM | 0.6 ± 0.2 µM | 
4 | COc1ccc2ccc3c(c2c1)C(c1ccc(F)cc1F)C(C#N)=C(N)O3 (centres unmarked) [4k, 3-Amino-1–(2,4-difluorophenyl)-9-methoxy-1H-benzo[f]chromene-2-carbonitrile] | 12% | 28% | 45% | 70% |  | 61.4 µM | 11.5 ± 0.6 µM | 10.9 to 15.5 µM | 47.3 ± 0.2 µM | 255 to 256 °C | 59.6 ± 0.1 µM | 8.2 ± 0.6 µM | 4.1 ± 0.2 µM | 57.8 µM | 3 ± 0.3 µM | 
5 | COc1ccc2ccc3c(c2c1)C(c1ccc(Cl)c(Cl)c1)C(C#N)=C(N)O3 (centres unmarked) [4q, 3-Amino-1–(3,4-dichlorophenyl)-9-methoxy-1H-benzo[f]chromene-2-carbonitrile] | 19% | 32% | 51% | 76% |  | 45.3 µM | 13.4 ± 0.4 µM | 10.9 to 15.5 µM | 72.8 ± 0.4 µM | 255 to 256 °C | 75.8 ± 0.2 µM | 1.5 ± 0.1 µM | 1.3 ± 0.1 µM | 39.1 µM | 2.3 ± 0.1 µM | 
6 | COc1ccc2ccc3c(c2c1)C(c1ccc(OC)c(OC)c1)C(C#N)=C(N)O3 (centres unmarked) [4w, 3-Amino-1–(3,4-dimethoxyphenyl)-9-methoxy-1H-benzo[f]chromene-2-carbonitrile] | 24% | 36% | 68% | 79% | 32.4 µM | 18.7 to 34.6 µM | 11.5 ± 0.6 µM | 10.9 to 15.5 µM | 52.9 ± 0.3 µM | 253 to 255 °C | 47.1 ± 0.2 µM | 52.3 ± 0.4 µM | 6.2 ± 0.3 µM | 25.6 µM | 2.6 ± 0.5 µM | 
7 | COc1cccc2c1C(=O)c1c(O)c3c(c(O)c1C2=O)C[C@@](O)(C(=O)CO)C[C@@H]3O[C@H]1C[C@H](N)[C@H](O)[C@H](C)O1 [Doxorubicin, reference compound] |  |  |  |  |  | 50.9 µM |  |  |  |  |  | 1.7 ± 0.4 µM | 0.9 ± 0.02 µM |  | 0.8 ± 0.01 µM | 30%
